Data on 1 molecule can be found in patent US20240002361A1, “COMPOSITIONS AND METHODS FOR BLOCKING NEUROPILIN RECEPTOR 1 FOR THE TREATMENT OF PAIN AND PREVENTION OF VIRAL ENTRY” (Arizona Board of Regents on Behalf of the University of …, priority 2020, published 2024).

Structures are written as SMILES. Values after ≈ are worked out from the molar mass of the structure shown.

Series [1] can be described thus: in vitro. It is filed as in vitro ADME. As to conditions: microsomes. On the procedure: (§1) Additionally, an initial absorption, distribution, metabolism, and excretion (ADME) profile of the compound series was performed (Table 4).
In series [2] the test system is HepG2 cells. Kind of series: Cell proliferation and cytotoxicity in HepG2 cells (CellTiterGlo). The following applies: Homo sapiens, 48 h. It is filed as cell-based. As to the method: as §1
Series [3] can be described thus: physchem. Type of series: physicochemical. As to the method: as §1

Regarding `COc1ccc(C)c(-c2cc(=O)[nH]c(Nc3ccccc3)n2)c1` [Compound 1v, 2-anilino-4-(5-methoxy-2-methyl-phenyl)-1H-pyrimidin-6-one], the half-life was over 2 h in series [1] (human), over 2 h in series [1] (mouse) and 0.0783 h in series [1] (rat). In series [2], this molecule registered an IC50 of over 30 µM. Besides, the logD in series [3] (pH 7.4) amounted to 2.91. In addition, the kinetic solubility in series [3] (pH 7.4, aqueous buffer, kinetic from dmso stock) came out at 8 µM (≈ 2.46 µg/mL).
